Source: US10227315B2, “Mitochondrial uncouplers for treatment of metabolic diseases and cancer” (RUTGERS, THE STATE UNIVERSITY OF NEW JERSEY, priority 2016, dated 2019)

Key:
[1] = test system: mouse pancreatic cancer cell Panc 2 cells, or human pancreatic cancer Panc 1 cells; experiment: Cell cycle progression (G0/G1 arrest), PI staining, flow cytometry; format: cell-based; details: 48 h treatment
Method: The effect of example compounds on cell cycle progression was analyzed. The tumor cells, mouse pancreatic cancer cell Panc 2 cells, or human pancreatic cancer Panc 1 cells, were treated with the individual compounds at concentrations that were efficacious for mitochondrial uncoupling for 48 h, whereas the control group was treated with vehicle DMSO. Cells were then fixed with ice-cold 70% ethanol on ice for 30 minutes. After that, 5 μl of propidium iodide (PI) (Sigma, P 4170, 1 mg/ml) solution and 50 μl of RNAse A (Sigma, R-4875) solutions were added to the fixed cells, which were then kept for 30 minutes in the dark at room temperature. The cell cycle profile of the cells was analyzed by flow cytometry. […] Table IV below summarizes the activity of other example compounds on inducing G0/G1 cell cycle arrest.

Cancer cells = experiment: Clonogenicity of cancer cells, colony counting; format: cell-based; details: 200 cells per well, 10 days
Method: The impact of example compounds on clonogenicity was analyzed. Cancer cells were plated in 6-well plates at 200 cells per well. Cells were treated with individual compounds at various concentrations. Cells were maintained with changes of the medium plus compounds for 10 days. The colonies were then fixed in 1:3 Acetic acid—Methanol solution for 5 minutes, stained with 0.02% crystal violet for 20 minutes and counted.

[2] = test system: mouse myoblast C2C12 cells; experiment: Oxygen consumption rate (OCR) assay with Seahorse XF96 or XF24, mitochondrial uncoupling; format: cell-based; details: 10% fetal bovine serum, in the presence of oligomycin 2.5 μM, read-out: Cmin (minimal concentration to induce ATP synthase-independent OCR increase)
Excerpt: By definition, mitochondrial uncoupling is the decoupling of mitochondrial electron transport chain activity (mitochondrial oxidation) from ATP synthesis by mitochondrial ATP synthase. Technically, mitochondrial uncoupling activity is defined by the ability of a chemical compound to induce oxygen consumption of cells or isolated mitochondria in the presence of a mitochondrial ATP synthase inhibitor such as oligomycin. Accordingly, we determined mitochondrial uncoupling activity by oxygen consumption rate (OCR) assay with a Seahorse XF96 or a Seahorse XF24 instrument following the vendor's instruction, using mouse myoblast C2C12 cells growing in medium containing 10% fetal bovine serum. […] The minimal concentration (Cmin) of each compound under which OCR is induced in the presence of oligomycin, was determined.

[3] = test system: Human colon cancer HCT116 cell line and human lung cancer cell line H1299; experiment: Cancer cell growth inhibition, NCI protocol, SRB staining; format: cell-based; details: 48 h incubation, HCT116 and H1299 cells, read-out: GI50, 50% growth inhibition activity
Method: The effect of example compounds on cancer cell growth was evaluated. The cell growth inhibition assays were performed using a protocol standardized by National Cancer Institute (NCI) for evaluating anti-cancer drugs (https://dtp.cancer.gov/discovery_development/nci-60/methodology.htm). Human colon cancer HCT116 cell line and human lung cancer cell line H1299 were used for the assays. The human tumor cells were inoculated into 96 well microtiter plates. After cell inoculation, the microtiter plates were incubated for cell growth for 24 h prior to addition of compounds. After 24 h, two plates of each cell line were fixed in situ with TCA, to represent a measurement of the cell population for each cell line at the time of compound addition (Tz). Test compounds were solubilized in dimethyl sulfoxide, At the time of test compound addition, five 10-fold or ½ log serial dilutions were made to provide a total of five test compound concentrations plus control. Aliquots of 100 μl of these different test compound dilutions were added to the appropriate microtiter wells already containing 100 μl of medium, resulting in the required final test compound concentrations. Following test compound addition, the plates were incubated for an additional 48 h. The assay was terminated by the addition of cold TCA, Cells were fixed in situ with 50 μl of cold 50% (w/v) TCA (final concentration, 10% TCA), washed five times with tap water and air dried. Sulforhodamine B (SRB) solution (100 ul) at 0.4% (w/v) in 1% acetic acid was added to each well, and plates were incubated for 10 minutes at room temperature. After staining, unbound dye was removed by washing five times with 1% acetic acid and the plates were air dried. […] Using the seven absorbance measurements [time zero, (Tz), control growth, (C), and test growth in the presence of compound at the five concentration levels (Ti)], the percentage growth was calculated at each of the test compound concentrations levels.

[4] = test system: NIH-3T3 cells, or HepG2 cells; experiment: Mitochondrial membrane potential assay, TMRE staining; format: cell-based; details: 2 h; two hours treatment, TMRE 100 nM; read-out: EC50, mitochondrial membrane potential reduction (TMRE staining reduced to about 50%)
Method: Mitochondrial uncoupling may also lead to a reduction of mitochondrial membrane potential. We performed mitochondrial membrane potential assay using TMRE (tetramethylrhodamine ethyl ester) staining method with cultured mammalian cells, the NIH-3T3 cells, or HepG2 cells. Cells were seeded onto 6-well plates and cultured in DMEM medium supplemented with 10% fetal bovine serum and 2 mM glutamine. Cells were allowed to grow to logarithmic growth phase prior to experiments. The cells were treated with each individual compound at various concentrations for two hours, followed by staining with TMRE at final concentration of 100 nM for 15 minutes. The cells were then washed once with PBS, and examined under fluorescence microscopy. Cells treated with various concentrations of niclosamide ethanolamine were used as positive control. Reduction of mitochondrial TMRE staining was estimated as a quantification of mitochondrial uncoupling activity. […] The following table (Table II) summarizes the activity of individual compounds in reducing mitochondrial membrane potential in cultured mammalian cells.

[5] = test system: HFD-induced diabetic mouse model; experiment: High-fat diet (HFD)-induced fatty liver and diabetic mouse model; format: in vivo; details: HFD containing 600 ppm compound
Excerpt: To test the efficacy of compounds in treating type 2 diabetes in vivo, we used Compound 28 as an example, and determined its effect in reducing blood glucose, reducing blood insulin concentration, improving insulin sensitivity and reducing fatty liver in a clinically relevant mouse model, the HFD-induced fatty liver and diabetic model. C57B6/J male mice were fed HFD (60% calorie from fat) for 4 months, starting at age of 2 months, to induce high blood glucose, high blood insulin, and insulin tolerance symptoms of type 2 diabetes as well as fatty liver. The mice then either continued with HFD or with HFD containing 600 ppm Compound 28. Blood glucose, blood insulin levels were measured and glucose tolerance assay was performed to measure insulin sensitivity. The mice were sacrificed and the effect of Compound 28 on fatty liver development was evaluated by comparing the liver weight.

[6] = test system: Panc 2 cells injected into the spleen of NOD-scid mice; experiment: Hepatic metastasis of pancreatic cancer mouse model; format: in vivo; details: chow containing 750 ppm compound
Method: The in vivo anti-cancer efficacy of an example compound, Compound 28, was examined using a well-established hepatic metastasis of pancreatic cancer mouse model. The mouse pancreatic cancer cells, Panc 2 cells (0.25 million cells), were injected into the spleen of immune compromised NOD-scid mice. The mice were randomized to two groups (n=6 each group), one group was fed normal chow, the second group was fed chow containing 750 ppm Compound 28. Three weeks later, mice were sacrificed and the hepatic metastasis of the pancreatic cancer was observed (FIGS. 5A-5B) and quantified (FIGS. 6A-6B) in control and Compound 28 treated mice.

| Structure (SMILES) | effective concentration that can arrest cell cycle at G0/G1 phase [1] | IC95, Concentration that reduces clonogenicity by 95% (Cancer cells) | minimal effective concentration [2] [µM] | GI50 [3] [µM] | EC50 [4] [µM] | also measured |
| --- | --- | --- | --- | --- | --- | --- |
| Cc1cc(Cl)cc(C(=O)Nc2nc3ccc(C(F)(F)F)cc3s2)c1O [Compound 1, 5-Chloro-2-hydroxy-3-methyl-N-(6-(trifluoromethyl)benzo[d]thiazol-2-yl)benzamide] | *** (*** <10 μM) | *** (*** <10 μM) |  |  |  |  |
| O=C(Nc1nc2c(F)cc(F)cc2s1)c1cc(Cl)ccc1O [Compound 23, 5-Chloro-N-(4,6-difluorobenzo[d]thiazol-2-yl)-2-hydroxybenzamide] |  |  | < 10 | < 10 |  |  |
| O=C(Nc1nc2c(C(F)(F)F)cc(F)cc2s1)c1cc(Cl)ccc1O [Compound 24, 5-Chloro-N-(6-fluoro-4-(trifluoromethyl)benzo[d]thiazol-2-yl)-2-hydroxybenzamide] |  |  | < 10 | < 10 | < 10 |  |
| CCc1cc(Cl)cc(C(=O)Nc2nc3ccc(C(F)(F)F)cc3s2)c1O [Compound 27, 5-Chloro-3-ethyl-2-hydroxy-N-(6-(trifluoromethyl)benzo[d]thiazol-2-yl)benzamide] | *** (*** <10 μM) | *** (*** <10 μM) | < 10 | < 10 | < 10 |  |
| Cc1cc(Cl)cc(C(=O)Nc2nc3ccc(C(F)(F)F)cc3s2)c1O [Compound 28, 5-Chloro-2-hydroxy-3-methyl-N-(6-(trifluoromethyl)benzo[d]thiazol-2-yl)benzamide ethanolamine] |  |  | < 10 | < 10 |  | blood glucose concentration ([5]; C57B6/J male mice): markedly reduced; blood insulin concentration ([5]; C57B6/J male mice): markedly reduced; fatty liver weight caused by high fat diet ([5]; C57B6/J male mice): reduced fatty liver weight; insulin sensitivity ([5]; C57B6/J male mice): improves insulin sensitivity; plasma concentration [5]: at an efficacious concentration that uncouples mitochondria; blood plasma concentrations [6]: in the range of efficacious concentration for uncoupling mitochondria; hepatic tumor metastasis ([6]; three weeks): little or no hepatic tumor metastasis; metastatic tumor volume ([6]; three weeks): dramatically reduced; number of metastatic tumor nodules ([6]; three weeks): dramatically reduced |
| Cc1cc(Cl)cc(C(=O)Nc2nc3c(C(F)(F)F)cccc3s2)c1O [Compound 31, 5-Chloro-2-hydroxy-3-methyl-N-(4-(trifluoromethyl)benzo[d]thiazol-2-yl)benzamide] |  |  | < 10 | < 10 |  |  |
| CC(C)c1cc(Cl)cc(C(=O)Nc2nc3ccc(C(F)(F)F)cc3s2)c1O [Compound 38, 5-Chloro-2-hydroxy-3-isopropyl-N-(6-(trifluoromethyl)benzo[d]thiazol-2-yl)benzamide] | *** (*** <10 μM) | *** (*** <10 μM) | < 10 | < 10 | < 10 |  |
| Cc1cc(Cl)cc(C(=O)Nc2nc3c(F)cc(F)cc3s2)c1O [Compound 40, 5-Chloro-N-(4,6-difluorobenzo[d]thiazol-2-yl)-2-hydroxy-3-methylbenzamide] |  |  | < 10 | < 10 | < 10 |  |
